PubChem BioAssay (NCI)
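Assay format: 96-well plates, 48-hour exposure. Here, GI50 denotes the concentration required for 50% inhibition of growth. At the TGI there is no net growth.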

Key:
Experiment in all cases: NCI anticancer screen, dose series, 48 h
SF-295 CNS = system: SF-295 CNS
EKVX NSCLC = system: EKVX NSCLC
SK-MEL-5 melanoma = system: SK-MEL-5 melanoma
NCI-H226 lung = system: NCI-H226 lung
HCT-15 colon = system: HCT-15 colon
MOLT-4 leukemia = system: MOLT-4 leukemia
OVCAR-5 ovarian = system: OVCAR-5 ovarian
SK-OV-3 ovarian = system: SK-OV-3 ovarian
MALME-3M melanoma = system: MALME-3M melanoma
HOP-62 NSCLC = system: HOP-62 NSCLC
SNB-75 CNS = system: SNB-75 CNS
NCI-H522 lung = system: NCI-H522 lung
CAKI-1 renal = system: CAKI-1 renal

Row | Structure (SMILES) | TGI (SF-295 CNS) [µM] | TGI (EKVX NSCLC) [µM] | TGI (SK-MEL-5 melanoma) [µM] | TGI (NCI-H226 lung) [µM] | TGI (HCT-15 colon) [µM] | TGI (MOLT-4 leukemia) [µM] | TGI (OVCAR-5 ovarian) [µM] | TGI (SK-OV-3 ovarian) [µM] | TGI (MALME-3M melanoma) [µM] | TGI (HOP-62 NSCLC) [µM] | TGI (SNB-75 CNS) [µM] | TGI (NCI-H522 lung) [µM] | TGI (CAKI-1 renal) [µM] | GI50 (EKVX NSCLC) [µM]
1 | O=C(O)c1ccc(NNc2cc(=O)[nH]c(=O)[nH]2)cc1 | > 100 | > 100 | > 100 | > 100 | > 100 | > 100 | > 100 | > 100 | > 100 | > 100 | > 100 |  |  | 
2 | CC(C)(C)C(=O)/C=C/c1ccc(Oc2ccccc2)cc1 | > 100 | 39.1 | 32.5 | 36.2 |  | 42.4 | 33.8 | > 100 | 44.6 | 86.4 | 74.5 | 24.1 |  | 
3 | CC1=C(Br)C(Br)=C(C)S1=O | 49.6 | 36.9 | 22.1 | 50.2 | > 100 | 33.4 | 37.4 | 65.5 | 39.3 | 42.1 |  | 23.8 | 49.9 | 
4 | C[C@H]1[C@H](C)CC[C@]2(C)CC[C@]3(C)C(=C[C@@H](O)[C@@H]4[C@@]5(C)[C@H](O)[C@@H](O)[C@H](O)C(C)(C)[C@@H]5CC[C@]43C)[C@H]12 | > 100 | > 100 | > 100 |  | > 100 | > 100 | > 100 | > 100 |  | > 100 |  |  | > 100 | 0.0221
5 | CC(=O)OC1CC2c3cccc4c3C(CC2N(C)C1=O)CN4C(=O)c1ccccc1 (centres undefined) | 69.5 | 83.1 | 29.1 | 96.5 | 46.2 | > 100 | > 100 | 80.4 |  | 77.4 |  | 34.4 | 54.8 | 
6 | CC12CCC(C(=O)OC1=O)C2(C)C (centres undefined) | > 100 |  |  | > 100 | > 100 | > 100 | > 100 | > 100 | > 100 | > 100 | > 100 | > 100 |  | 
7 | C=CCN1C[C@H](C)N([C@H](c2ccc(C(=O)N(CC)CCO)cc2)c2cccc(OC)c2)C[C@H]1C | > 100 | > 100 | > 100 | > 100 | > 100 | > 100 | > 100 | > 100 | > 100 | > 100 |  | > 100 | > 100 | 
8 | O=C(c1ccccc1)c1c(-c2ccccc2)[nH]n(-c2ccc([N+](=O)[O-])cc2)c(=O)c1=O | > 100 | > 100 | > 100 | > 100 | > 100 | > 100 | > 100 | > 100 | > 100 | > 100 |  | 73.7 | > 100 | 
